Consider one compound from publication PMC9399118, “Pentadecanoylcarnitine is a newly discovered endocannabinoid with pleiotropic activities relevant to supporting physical and mental health” (Scientific Reports, 2022).

The target of assay [1] is T1, histamine H2 receptor (H2R) (Homo sapiens, UniProt P25021).
T1 construct: gene HRH2; full-length receptor expected in commercial panel cell line (Eurofins/DiscoverX SafetyScan47)
Kind of assay: cell-based SafetyScan47 dose-response assay, […] doses. The conditions noted are these: read-out: half-maximal inhibitory concentration.

The target of assay [2] is T2, serotonin 1B receptor (5-HT1B) (Homo sapiens, UniProt P28222).
T2 construct: gene HTR1B; full-length receptor expected in commercial panel cell line (Eurofins/DiscoverX SafetyScan47)
The assay is described as above. The settings on record: read-out: half-maximal effective concentration.

Assay [3] addresses T3, cannabinoid receptor 1 (CB1) (Homo sapiens, UniProt P21554).
T3 construct: gene CNR1; full-length receptor expected in commercial panel cell line (Eurofins/DiscoverX SafetyScan47)
Briefly: cell-based GPCR cAMP modulation assay, […] doses. The settings on record: read-out: half-maximal effective concentration.

The target in assay [4] is T4, serotonin 1A receptor (5-HT1A) (Homo sapiens, UniProt P08908).
T4 construct: gene HTR1A; full-length receptor expected in commercial panel cell line (Eurofins/DiscoverX SafetyScan47)
Kind of assay: cell-based SafetyScan47 dose-response assay, […] doses. The conditions noted are these: read-out: half-maximal effective concentration.

For assay [5], the target named is T5, cannabinoid receptor 2 (CB2) (Homo sapiens, UniProt P34972).
T5 construct: gene CNR2; full-length receptor expected in commercial panel cell line (Eurofins/DiscoverX SafetyScan47)
Kind of assay: cell-based GPCR cAMP modulation assay, […] doses. The settings on record: read-out: half-maximal effective concentration.

The target of assay [6] is T6, histamine H1 receptor (H1R) (Homo sapiens, UniProt P35367).
T6 construct: gene HRH1; full-length receptor expected in commercial panel cell line (Eurofins/DiscoverX SafetyScan47)
Briefly: cell-based SafetyScan47 dose-response assay, […] doses. The conditions noted are these: read-out: half-maximal inhibitory concentration.

T5 sequence (P34972 whole entry): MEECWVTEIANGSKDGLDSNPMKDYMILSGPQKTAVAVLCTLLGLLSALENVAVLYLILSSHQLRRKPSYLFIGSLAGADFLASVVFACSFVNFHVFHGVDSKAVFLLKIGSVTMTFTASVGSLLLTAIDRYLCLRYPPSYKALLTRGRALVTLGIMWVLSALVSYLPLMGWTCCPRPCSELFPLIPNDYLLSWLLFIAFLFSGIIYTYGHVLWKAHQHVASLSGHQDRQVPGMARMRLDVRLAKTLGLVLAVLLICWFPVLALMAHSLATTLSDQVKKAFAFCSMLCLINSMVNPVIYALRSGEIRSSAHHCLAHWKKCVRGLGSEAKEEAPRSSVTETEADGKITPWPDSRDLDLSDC
T4 sequence (P08908 whole entry): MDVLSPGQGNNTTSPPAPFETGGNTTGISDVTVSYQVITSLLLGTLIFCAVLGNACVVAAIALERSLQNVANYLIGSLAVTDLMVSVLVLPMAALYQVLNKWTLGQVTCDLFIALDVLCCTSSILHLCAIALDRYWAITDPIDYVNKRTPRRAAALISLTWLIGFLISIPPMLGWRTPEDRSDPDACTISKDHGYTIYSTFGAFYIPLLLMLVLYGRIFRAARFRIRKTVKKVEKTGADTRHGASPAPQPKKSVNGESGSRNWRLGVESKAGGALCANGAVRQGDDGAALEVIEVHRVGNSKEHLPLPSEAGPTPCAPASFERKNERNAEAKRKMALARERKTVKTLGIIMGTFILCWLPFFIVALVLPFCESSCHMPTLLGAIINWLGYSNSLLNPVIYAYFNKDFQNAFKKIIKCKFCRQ
T2 sequence (P28222 whole entry): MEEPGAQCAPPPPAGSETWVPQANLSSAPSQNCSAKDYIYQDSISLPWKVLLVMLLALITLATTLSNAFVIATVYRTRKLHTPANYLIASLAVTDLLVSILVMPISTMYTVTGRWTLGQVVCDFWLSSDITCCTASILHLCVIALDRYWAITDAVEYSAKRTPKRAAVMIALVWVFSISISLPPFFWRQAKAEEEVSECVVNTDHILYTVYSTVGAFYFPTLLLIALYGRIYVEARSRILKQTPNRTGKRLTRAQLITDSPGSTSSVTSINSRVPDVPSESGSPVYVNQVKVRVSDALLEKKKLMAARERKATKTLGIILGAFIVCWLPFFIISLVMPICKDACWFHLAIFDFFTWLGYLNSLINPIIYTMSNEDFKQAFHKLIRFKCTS
T6 sequence (P35367 whole entry): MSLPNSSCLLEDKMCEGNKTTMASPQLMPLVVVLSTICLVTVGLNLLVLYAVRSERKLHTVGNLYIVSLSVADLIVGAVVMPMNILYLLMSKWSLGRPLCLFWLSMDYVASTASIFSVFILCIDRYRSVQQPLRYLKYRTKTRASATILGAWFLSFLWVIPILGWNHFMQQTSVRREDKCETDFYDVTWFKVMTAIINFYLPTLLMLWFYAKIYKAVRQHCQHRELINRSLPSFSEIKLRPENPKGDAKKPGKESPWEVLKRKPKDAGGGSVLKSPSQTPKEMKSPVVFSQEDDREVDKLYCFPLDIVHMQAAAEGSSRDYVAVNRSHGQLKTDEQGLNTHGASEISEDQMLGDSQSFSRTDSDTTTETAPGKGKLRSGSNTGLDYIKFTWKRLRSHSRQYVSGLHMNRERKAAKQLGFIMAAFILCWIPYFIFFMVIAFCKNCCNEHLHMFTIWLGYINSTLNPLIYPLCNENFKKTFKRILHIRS
T1 sequence (P25021 whole entry): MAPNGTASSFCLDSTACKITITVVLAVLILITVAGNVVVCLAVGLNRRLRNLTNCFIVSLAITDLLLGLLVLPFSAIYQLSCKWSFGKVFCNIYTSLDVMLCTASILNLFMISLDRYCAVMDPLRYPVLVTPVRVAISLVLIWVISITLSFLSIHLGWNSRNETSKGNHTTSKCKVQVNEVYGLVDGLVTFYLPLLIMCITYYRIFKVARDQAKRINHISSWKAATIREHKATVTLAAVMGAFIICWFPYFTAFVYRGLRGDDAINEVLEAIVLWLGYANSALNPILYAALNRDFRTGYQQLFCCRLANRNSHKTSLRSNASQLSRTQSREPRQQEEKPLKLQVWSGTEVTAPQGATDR
T3 sequence (P21554 whole entry): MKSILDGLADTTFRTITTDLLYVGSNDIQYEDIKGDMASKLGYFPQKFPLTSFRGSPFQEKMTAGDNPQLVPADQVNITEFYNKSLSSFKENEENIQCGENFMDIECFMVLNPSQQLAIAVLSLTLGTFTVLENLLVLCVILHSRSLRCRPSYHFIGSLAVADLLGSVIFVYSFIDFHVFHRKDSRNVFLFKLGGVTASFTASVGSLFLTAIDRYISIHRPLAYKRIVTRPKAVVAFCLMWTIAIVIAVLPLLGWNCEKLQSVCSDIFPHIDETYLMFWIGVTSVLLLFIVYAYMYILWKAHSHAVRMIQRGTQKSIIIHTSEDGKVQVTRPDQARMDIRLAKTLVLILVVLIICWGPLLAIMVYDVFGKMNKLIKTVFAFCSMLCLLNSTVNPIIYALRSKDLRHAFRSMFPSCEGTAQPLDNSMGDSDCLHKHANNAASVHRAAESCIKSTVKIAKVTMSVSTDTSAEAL

As for `CCCCCCCCCCCCCCC(=O)O[C@H](CC(=O)[O-])C[N+](C)(C)C` [pentadecanoylcarnitine], the figures for the IC50 in assay [1] and in assay [6] were 6.1 µM and 10.9 µM, respectively. Also, the EC50 is 9.3 µM in assay [2], 3.7 µM in assay [3], 9.6 µM in assay [4] and 3.2 µM in assay [5].
